Results: ChEMBL document CHEMBL1139115, “Thyroid receptor ligands. Part 7: Indirect antagonists of the thyroid hormone receptor with improved affinity” (Bioorg Med Chem Lett, 2007)

What was measured:
[1] = target: T1, Thyroid hormone receptor alpha (Homo sapiens, UniProt P10827); assay: Binding affinity at human TRalpha1
T1 sequence (P10827 whole entry): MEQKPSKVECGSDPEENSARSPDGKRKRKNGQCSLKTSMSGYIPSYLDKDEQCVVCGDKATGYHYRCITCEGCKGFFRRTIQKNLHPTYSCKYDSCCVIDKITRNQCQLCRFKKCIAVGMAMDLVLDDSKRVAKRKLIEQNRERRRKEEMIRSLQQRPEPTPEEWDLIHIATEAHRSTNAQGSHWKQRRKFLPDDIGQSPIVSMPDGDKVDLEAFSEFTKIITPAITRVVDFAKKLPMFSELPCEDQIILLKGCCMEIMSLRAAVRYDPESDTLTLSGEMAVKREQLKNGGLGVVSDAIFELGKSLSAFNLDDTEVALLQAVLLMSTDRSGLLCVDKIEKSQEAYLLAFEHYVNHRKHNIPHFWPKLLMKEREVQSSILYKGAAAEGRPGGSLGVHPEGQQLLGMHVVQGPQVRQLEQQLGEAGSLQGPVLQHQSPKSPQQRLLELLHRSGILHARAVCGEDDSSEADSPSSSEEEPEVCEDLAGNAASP

[2] = target: T2, Thyroid hormone receptor beta (Homo sapiens, UniProt P10828); assay: Binding affinity at human TRbeta1
T2 sequence (P10828 whole entry): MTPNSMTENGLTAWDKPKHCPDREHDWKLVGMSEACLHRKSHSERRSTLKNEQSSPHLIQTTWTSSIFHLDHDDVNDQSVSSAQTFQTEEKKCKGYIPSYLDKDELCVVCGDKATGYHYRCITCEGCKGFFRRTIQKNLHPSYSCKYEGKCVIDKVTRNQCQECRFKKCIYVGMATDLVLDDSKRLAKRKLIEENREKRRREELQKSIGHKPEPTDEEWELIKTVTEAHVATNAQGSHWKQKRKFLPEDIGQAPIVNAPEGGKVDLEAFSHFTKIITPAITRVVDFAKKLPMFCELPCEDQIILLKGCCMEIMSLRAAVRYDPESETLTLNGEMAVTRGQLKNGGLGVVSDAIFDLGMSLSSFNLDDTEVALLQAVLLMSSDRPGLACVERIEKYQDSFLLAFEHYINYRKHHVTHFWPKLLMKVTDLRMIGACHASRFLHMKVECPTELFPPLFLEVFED

Homo sapiens = species on record: Homo sapiens; assay: Selectivity for human TR-alpha-1 to human TRbeta1
[3] = target: T1, Thyroid hormone receptor alpha; assay: Displacement of L-T3 from human TR-alpha-1 expressed in CHOK1 cells assessed as TRAF-alpha-1-driven gene transactivation by alkaline phosphatase reporter gene assay; format: cell-based, CHO-K1
[4] = target: T3, Thyroid hormone receptor alpha (Homo sapiens) (UniProt P10827); assay: (§1) Antagonist activity at human TR-alpha-1 expressed in CHO cells assessed as TRAF-alpha-1-driven gene transactivation by alkaline phosphatase reporter gene assay; format: functional, cell-based; set-up: scale not given: the % may be the effect or the level left
T3 sequence (whole entry): T1 sequence (P10827 whole entry)

[5] = target: T1, Thyroid hormone receptor alpha; assay: as §1; format: functional, cell-based
Androgen receptor = target: T4, Androgen receptor (Homo sapiens, UniProt P10275); assay: Binding affinity at AR
T4 sequence (P10275 whole entry): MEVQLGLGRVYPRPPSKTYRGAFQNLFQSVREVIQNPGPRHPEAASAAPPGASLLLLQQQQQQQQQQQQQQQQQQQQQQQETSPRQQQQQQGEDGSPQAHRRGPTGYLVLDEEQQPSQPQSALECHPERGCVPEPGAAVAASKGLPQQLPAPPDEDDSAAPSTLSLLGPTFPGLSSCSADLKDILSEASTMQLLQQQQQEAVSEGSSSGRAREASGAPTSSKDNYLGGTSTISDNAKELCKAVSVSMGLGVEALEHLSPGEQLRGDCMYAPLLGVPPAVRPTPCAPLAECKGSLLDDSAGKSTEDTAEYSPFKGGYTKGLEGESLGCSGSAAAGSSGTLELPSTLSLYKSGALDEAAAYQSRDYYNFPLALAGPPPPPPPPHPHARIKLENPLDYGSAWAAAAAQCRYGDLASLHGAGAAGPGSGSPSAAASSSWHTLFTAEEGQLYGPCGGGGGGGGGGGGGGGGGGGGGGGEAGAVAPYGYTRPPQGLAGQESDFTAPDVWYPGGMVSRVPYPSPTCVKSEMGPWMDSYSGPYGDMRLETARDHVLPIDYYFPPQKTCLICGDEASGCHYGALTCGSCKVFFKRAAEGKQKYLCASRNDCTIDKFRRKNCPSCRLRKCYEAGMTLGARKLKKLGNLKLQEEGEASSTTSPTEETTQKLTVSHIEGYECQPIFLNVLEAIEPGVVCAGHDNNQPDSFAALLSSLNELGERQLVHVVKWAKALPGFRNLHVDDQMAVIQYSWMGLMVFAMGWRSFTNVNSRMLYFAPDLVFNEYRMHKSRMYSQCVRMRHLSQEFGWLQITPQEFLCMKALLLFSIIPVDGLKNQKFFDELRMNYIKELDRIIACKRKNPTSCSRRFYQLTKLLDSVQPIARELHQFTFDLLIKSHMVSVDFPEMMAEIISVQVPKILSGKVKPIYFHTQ

Estrogen receptor = target: T5, Estrogen receptor (Homo sapiens, UniProt P03372); assay: Binding affinity at ERalpha
T5 sequence (P03372 whole entry): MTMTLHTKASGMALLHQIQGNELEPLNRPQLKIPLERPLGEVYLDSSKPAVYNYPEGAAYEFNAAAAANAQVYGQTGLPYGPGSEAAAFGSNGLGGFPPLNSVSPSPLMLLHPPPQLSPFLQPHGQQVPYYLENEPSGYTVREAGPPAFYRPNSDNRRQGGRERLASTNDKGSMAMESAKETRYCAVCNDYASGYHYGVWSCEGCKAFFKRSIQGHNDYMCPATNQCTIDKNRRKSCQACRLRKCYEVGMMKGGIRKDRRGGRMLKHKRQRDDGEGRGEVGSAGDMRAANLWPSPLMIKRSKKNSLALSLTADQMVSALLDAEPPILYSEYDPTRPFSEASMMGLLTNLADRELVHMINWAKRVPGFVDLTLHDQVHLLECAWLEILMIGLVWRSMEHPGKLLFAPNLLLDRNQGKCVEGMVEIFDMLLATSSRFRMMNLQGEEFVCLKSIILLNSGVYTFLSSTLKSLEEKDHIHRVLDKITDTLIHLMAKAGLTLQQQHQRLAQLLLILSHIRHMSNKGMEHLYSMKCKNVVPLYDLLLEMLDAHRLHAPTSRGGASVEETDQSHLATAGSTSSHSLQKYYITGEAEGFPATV

Glucocorticoid receptor = target: T6, Glucocorticoid receptor (Homo sapiens, UniProt P04150); assay: Binding affinity at GR
T6 sequence (P04150 whole entry): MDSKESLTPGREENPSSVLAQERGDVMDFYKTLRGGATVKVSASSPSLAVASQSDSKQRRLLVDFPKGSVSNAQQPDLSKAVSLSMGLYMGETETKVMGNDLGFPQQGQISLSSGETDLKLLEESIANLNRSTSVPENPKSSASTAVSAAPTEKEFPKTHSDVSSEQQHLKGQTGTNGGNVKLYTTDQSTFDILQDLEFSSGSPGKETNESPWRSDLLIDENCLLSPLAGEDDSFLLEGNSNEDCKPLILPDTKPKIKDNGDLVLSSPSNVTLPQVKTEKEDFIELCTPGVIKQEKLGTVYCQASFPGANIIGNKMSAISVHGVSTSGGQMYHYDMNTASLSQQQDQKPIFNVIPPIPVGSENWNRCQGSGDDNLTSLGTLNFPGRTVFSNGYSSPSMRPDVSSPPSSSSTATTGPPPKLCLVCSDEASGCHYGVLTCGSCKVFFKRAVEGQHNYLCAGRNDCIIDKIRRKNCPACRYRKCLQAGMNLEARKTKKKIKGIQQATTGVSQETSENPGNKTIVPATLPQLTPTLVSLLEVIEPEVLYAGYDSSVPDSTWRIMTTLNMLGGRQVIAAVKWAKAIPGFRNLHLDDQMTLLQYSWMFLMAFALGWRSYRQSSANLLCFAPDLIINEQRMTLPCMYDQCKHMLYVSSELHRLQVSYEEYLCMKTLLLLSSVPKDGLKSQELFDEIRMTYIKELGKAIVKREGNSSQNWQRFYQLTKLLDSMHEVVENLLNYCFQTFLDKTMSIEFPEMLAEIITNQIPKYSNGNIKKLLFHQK

Progesterone receptor = target: T7, Progesterone receptor (Homo sapiens, UniProt P06401); assay: Binding affinity at PR
T7 sequence (P06401 whole entry): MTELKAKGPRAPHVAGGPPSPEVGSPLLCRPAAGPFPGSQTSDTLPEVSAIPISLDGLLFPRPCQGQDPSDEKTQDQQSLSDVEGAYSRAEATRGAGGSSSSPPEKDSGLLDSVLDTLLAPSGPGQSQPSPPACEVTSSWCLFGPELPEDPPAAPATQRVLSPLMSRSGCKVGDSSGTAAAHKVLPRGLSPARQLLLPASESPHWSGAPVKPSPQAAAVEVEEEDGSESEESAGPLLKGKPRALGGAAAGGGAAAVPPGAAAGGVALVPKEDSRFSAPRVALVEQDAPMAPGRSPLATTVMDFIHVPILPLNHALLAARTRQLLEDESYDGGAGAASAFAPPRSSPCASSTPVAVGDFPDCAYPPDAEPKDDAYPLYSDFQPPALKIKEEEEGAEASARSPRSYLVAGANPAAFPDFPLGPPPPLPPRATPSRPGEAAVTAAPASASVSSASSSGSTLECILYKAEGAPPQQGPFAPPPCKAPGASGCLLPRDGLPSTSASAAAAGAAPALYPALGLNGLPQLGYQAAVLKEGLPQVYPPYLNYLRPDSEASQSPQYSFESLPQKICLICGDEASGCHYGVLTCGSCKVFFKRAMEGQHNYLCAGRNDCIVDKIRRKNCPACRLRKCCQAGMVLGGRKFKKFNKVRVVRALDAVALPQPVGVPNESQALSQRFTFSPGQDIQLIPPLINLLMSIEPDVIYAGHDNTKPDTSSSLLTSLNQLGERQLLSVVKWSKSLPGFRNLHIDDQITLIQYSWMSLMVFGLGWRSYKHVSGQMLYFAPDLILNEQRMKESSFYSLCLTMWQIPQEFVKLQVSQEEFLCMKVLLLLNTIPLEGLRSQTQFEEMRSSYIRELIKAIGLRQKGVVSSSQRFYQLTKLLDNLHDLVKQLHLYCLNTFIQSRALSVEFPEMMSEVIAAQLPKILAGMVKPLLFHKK

[6] = target: T8, Mineralocorticoid receptor (Homo sapiens, UniProt P08235); assay: Binding affinity at MR
T8 sequence (P08235 whole entry): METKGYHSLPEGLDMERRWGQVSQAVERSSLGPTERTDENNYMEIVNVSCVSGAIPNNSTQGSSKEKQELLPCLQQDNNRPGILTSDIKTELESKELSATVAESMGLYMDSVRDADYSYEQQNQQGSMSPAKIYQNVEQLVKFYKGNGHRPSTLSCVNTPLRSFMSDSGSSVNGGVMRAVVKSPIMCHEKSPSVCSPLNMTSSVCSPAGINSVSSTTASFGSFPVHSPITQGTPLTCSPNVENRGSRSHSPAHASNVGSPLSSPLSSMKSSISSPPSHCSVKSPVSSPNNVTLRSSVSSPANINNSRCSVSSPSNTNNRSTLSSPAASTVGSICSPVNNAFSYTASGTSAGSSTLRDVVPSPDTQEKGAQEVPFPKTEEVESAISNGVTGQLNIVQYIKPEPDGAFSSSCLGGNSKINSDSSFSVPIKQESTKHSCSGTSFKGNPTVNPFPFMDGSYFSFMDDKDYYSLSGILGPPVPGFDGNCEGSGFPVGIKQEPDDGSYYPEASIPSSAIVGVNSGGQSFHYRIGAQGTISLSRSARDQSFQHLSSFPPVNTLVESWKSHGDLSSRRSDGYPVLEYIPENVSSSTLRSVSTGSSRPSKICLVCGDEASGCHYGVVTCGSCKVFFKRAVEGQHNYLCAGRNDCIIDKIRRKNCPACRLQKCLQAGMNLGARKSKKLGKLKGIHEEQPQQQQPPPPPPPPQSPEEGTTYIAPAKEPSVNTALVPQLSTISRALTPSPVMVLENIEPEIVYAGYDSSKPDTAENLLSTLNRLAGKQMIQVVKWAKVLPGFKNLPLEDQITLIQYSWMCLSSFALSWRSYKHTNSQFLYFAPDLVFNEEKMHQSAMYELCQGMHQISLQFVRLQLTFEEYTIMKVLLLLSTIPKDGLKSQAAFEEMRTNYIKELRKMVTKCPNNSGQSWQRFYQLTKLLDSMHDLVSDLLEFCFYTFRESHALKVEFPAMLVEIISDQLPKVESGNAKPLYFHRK

[7] = target: T2, Thyroid hormone receptor beta
Description: Antagonist activity at human TR-beta-1 expressed in CHO cells assessed as TRAF-beta-1-driven gene transactivation by alkaline phosphatase reporter gene assay

[8] = target: T2, Thyroid hormone receptor beta; assay: Agonist activity at human TR-beta-1 expressed in CHO cells assessed as TRAF-beta-1-driven gene transactivation by alkaline phosphatase reporter gene assay; format: functional, cell-based
[9] = target: T1, Thyroid hormone receptor alpha
Description: Agonist activity at human TR-alpha-1 expressed in CHO cells assessed as TRAF-alpha-1-driven gene transactivation by alkaline phosphatase reporter gene assay

Row | Structure (SMILES) | IC50 [1] [µM] | IC50 [2] [µM] | Ratio IC50 (Homo sapiens) | other results
1 | O=C(O)CCc1cc(Br)c(OCc2cccc(Br)c2)c(Br)c1 | 0.099 | 0.06 | 0.97 | IC50 [3]: 0.09 µM; Activity [4]: 80%; IC50 [5]: 0.38 µM; IC50 (Androgen receptor): 7.7 µM; IC50 (Estrogen receptor): 29 µM; IC50 (Glucocorticoid receptor): 14 µM; IC50 (Progesterone receptor): 2.5 µM; IC50 [6]: 8.7 µM; IC50 [7]: 0.23 µM
2 | CCNc1cccc(COc2c(Br)cc(CCC(=O)O)cc2Br)c1 | 0.078 | 0.023 | 3.4 | EC50 [8]: 0.049 µM; EC50 [9]: 0.023 µM
3 | CCN(CC)c1cccc(COc2c(Br)cc(CCC(=O)O)cc2Br)c1 | 0.48 | 0.087 | 3.2 | –
4 | O=C(O)CCc1cc(Br)c(OCc2cccc(C(F)(F)F)c2)c(Br)c1 | 0.37 | 0.16 | 1.4 | –

Second part, led by results:

Row | IC50 [1] [µM] | IC50 [2] [µM] | Ratio IC50 (Homo sapiens) | Structure (SMILES) | other results
5 | 2.6 | 0.82 | 4.5 | Nc1cccc(COc2c(Br)cc(CCC(=O)O)cc2Br)c1 | –
6 | 0.6 | 0.36 | 0.98 | Cc1ccc(COc2c(Br)cc(CCC(=O)O)cc2Br)cc1 | –
7 | 1.3 | 0.2 | 3.8 | Cc1ccccc1COc1c(Br)cc(CCC(=O)O)cc1Br | –
8 | 0.68 | 0.23 | 1.7 | O=C(O)CCc1cc(Br)c(OCc2ccccc2)c(Br)c1 | –
9 | 0.36 | 0.12 | 1.8 | Cc1cccc(COc2c(Br)cc(CCC(=O)O)cc2Br)c1 | –
10 | 0.5 | 0.19 | 1.5 | O=C(O)CCc1cc(Br)c(OCc2cccc(Cl)c2)c(Br)c1 | –
